Results reported in ChEMBL document CHEMBL1145665, “Tunicamycins, streptovirudins, and corynetoxins, a special subclass of nucleoside antibiotics” (J Nat Prod, 1983).

Organism: Sus scrofa
Assay: Inhibition of pig aortic GlcNAc-1P-transferase-mediated […] formation at 0.5 to 1.5 ug/ml
`CC(=O)N[C@H]1[C@@H](O[C@@H]2O[C@H](C[C@H](O)[C@H]3O[C@@H](n4ccc(=O)[nH]c4=O)[C@H](O)[C@@H]3O)[C@H](O)[C@H](O)[C@H]2NC(=O)/C=C/CCCCCCCC(C)C)O[C@H](CO)[C@@H](O)[C@@H]1O` showed an inhibition of 50%.
`CC(=O)N[C@H]1[C@@H](O[C@@H]2O[C@H](C[C@H](O)[C@H]3O[C@@H](n4ccc(=O)[nH]c4=O)[C@H](O)[C@@H]3O)[C@H](O)[C@H](O)[C@H]2NC(=O)/C=C/CCCCCCC(C)C)O[C@H](CO)[C@@H](O)[C@@H]1O` showed an inhibition of 50%.
In the case of `CCC(C)CCCCCCCC/C=C/C(=O)N[C@H]1[C@H](O[C@H]2O[C@H](CO)[C@@H](O)[C@H](O)[C@H]2NC(C)=O)O[C@H](C[C@H](O)[C@H]2O[C@@H](n3ccc(=O)[nH]c3=O)[C@H](O)[C@@H]2O)[C@H](O)[C@@H]1O` (stereo not given in full), the inhibition is reported as 50%.
In the case of `CCC(C)CCCCCC/C=C/C(=O)N[C@H]1[C@H](O[C@H]2O[C@H](CO)[C@@H](O)[C@H](O)[C@H]2NC(C)=O)O[C@H](C[C@H](O)[C@H]2O[C@@H](n3ccc(=O)[nH]c3=O)[C@H](O)[C@@H]2O)[C@H](O)[C@@H]1O` (stereo not given in full), the inhibition is reported as 50%.
`CC(=O)N[C@H]1[C@@H](O[C@@H]2O[C@H](C[C@H](O)[C@H]3O[C@@H](n4ccc(=O)[nH]c4=O)[C@H](O)[C@@H]3O)[C@H](O)[C@H](O)[C@H]2NC(=O)/C=C/CCCCCCCCC(C)C)O[C@H](CO)[C@@H](O)[C@@H]1O` gave an inhibition of 50%.

Organism: Sus scrofa
Assay: Inhibition of pig aortic GlcNAc-1P-transferase-mediated […] formation at 50 to 100 ug/ml
Molecule `CCC(C)CCCCCC/C=C/C(=O)N[C@H]1[C@H](O[C@H]2O[C@H](CO)[C@@H](O)[C@H](O)[C@H]2NC(C)=O)O[C@H](C[C@H](O)[C@H]2O[C@@H](N3CCC(=O)NC3=O)[C@H](O)[C@@H]2O)[C@H](O)[C@@H]1O` (stereo not given in full) has an inhibition of 50%.
Work on `CC(=O)N[C@H]1[C@@H](O[C@@H]2O[C@H](C[C@H](O)[C@H]3O[C@@H](N4CCC(=O)NC4=O)[C@H](O)[C@@H]3O)[C@H](O)[C@H](O)[C@H]2NC(=O)/C=C/CCCCCCCC(C)C)O[C@H](CO)[C@@H](O)[C@@H]1O` yielded an inhibition of 50%.
For `CC(=O)N[C@H]1[C@@H](O[C@@H]2O[C@H](C[C@H](O)[C@H]3O[C@@H](N4CCC(=O)NC4=O)[C@H](O)[C@@H]3O)[C@H](O)[C@H](O)[C@H]2NC(=O)/C=C/CCCCCCCCC(C)C)O[C@H](CO)[C@@H](O)[C@@H]1O`, the inhibition was 50%.
Work on `CC(=O)N[C@H]1[C@@H](O[C@@H]2O[C@H](C[C@H](O)[C@H]3O[C@@H](N4CCC(=O)NC4=O)[C@H](O)[C@@H]3O)[C@H](O)[C@H](O)[C@H]2NC(=O)/C=C/CCCCCCC(C)C)O[C@H](CO)[C@@H](O)[C@@H]1O` yielded an inhibition of 50%.
Molecule `CCC(C)CCCCCCCC/C=C/C(=O)N[C@H]1[C@H](O[C@H]2O[C@H](CO)[C@@H](O)[C@H](O)[C@H]2NC(C)=O)O[C@H](C[C@H](O)[C@H]2O[C@@H](N3CCC(=O)NC3=O)[C@H](O)[C@@H]2O)[C@H](O)[C@@H]1O` (stereo not given in full) has an inhibition of 50%.
